Our source for the IC50, inhibition and half-life in plasma values is patent publication US20240400508A1, “ALKYL-SUBSTITUTED DERIVATIVES OF […] ME[…] […] USES THEREOF” (Sensorium Therapeutics, Inc., priority 2022, published 2024).

In one series the target is T1, SERT (Homo sapiens, UniProt P31645).
T1 construct: expressed in transfected cells
The experiment in a line: SERT inhibition assay (Neurotransmitter Transportation Fluorescence assay). Type of series: cell-based. The conditions noted are these: stable 5HTT cells, assay of Example B1. On the procedure:
SERT inhibition was measured using a Neruotransmitter Transportation Fluorescence assay. Briefly, stable SHTT cells were prepared in a 384 microwell plate. Compounds were prepared in assay buffer (20 mM HEPES in HBSS, 0.1% BSA). The compounds were added to the plated cells and incubated for 30 minutes at 37° C. 25 μL of dye solution (Molecular Devices Neurotransmitter Transporter Uptake Assay Kit) was added per well and incubated for 30 minutes at 37° C. The plates were then read on a plate reader.

For another series, the target named is T2, PDE4B2 (Homo sapiens, UniProt Q07343).
T2 construct: purchased BPS Bioscience
The experiment in a line: Recombinant PDE4 isoform inhibition assay (BPS Bioscience kit, fluorescence polarization). Type of series: biochemical. How it is done:
(§1) Recombinant PDE assay inhibition can be measured according to the BPS Bioscience PDE4 assay kit, as described below.
(§2) • 1) Dilute 20 μM FAM-Cyclic-3′, 5′-AMP stock 100-fold with PDE buffer to make a 200 nM
(§3) • 2) Add 25 μl of FAM-Cyclic-3′,5′-AMP (200 nM) to each well designated “Positive Control”, “Test Inhibitor”, and “Substrate Control”. • 3) Add 20 μl of PDE assay buffer to each well designated “Substrate Control” and 45 μl of PDE assay buffer to each well designated “Blank”. • 4) Add 5 μl of inhibitor solution to each well designated “Test Inhibitor”. For the wells labeled “Positive Control”, “Substrate Control” and “Blank”, add 5 μl of the same solution without inhibitor (inhibitor buffer). • 5) Thaw PDE on ice. Upon first thaw, briefly spin tube containing enzyme to recover the full contents of the tube. • 6) Dilute PDE4 in PDE buffer to 7.5 pg/μl (0.15 ng/reaction)*. Initiate reaction by adding 20 μl of PDE4 (7.5 pg/μl) to the wells designated “Positive Control” and “Test Inhibitor.” • 7) Incubate at room temperature for 1 hour.
(§4) • 1) Mix binding agent thoroughly and dilute binding agent 1:100 with binding agent diluent. • 2) Add 100 μl diluted binding agent to each microwell. Incubate at room temperature for 1 hour with slow shaking. • 3) Read the fluorescent polarization of the sample in a microtiter-plate reader equipped for the measurement of fluorescence polarization, capable of excitation at wavelengths ranging from 485±5 nm and detection of emitted light ranging from 528±10 nm. Blank value is subtracted from all other values.

The next series addresses T3, PDE4A1A (Homo sapiens, UniProt P27815).
T3 construct: purchased BPS Bioscience
The description is as above. The class given is biochemical. On the procedure: as §1, §2, §3, §4

In another series the target is T4, PDE4D2 (Homo sapiens, UniProt Q08499).
T4 construct: purchased BPS Bioscience
Described as above. Type of series: biochemical. How it is done:
as §1, §2, §3, §4

The target of another series is T5, PDE4C1 (Homo sapiens, UniProt Q08493).
T5 construct: purchased BPS Bioscience
Described as above. The class given is biochemical. On the procedure:
as §1, §2, §3, §4

The conditions of series [1]: cited from earlier work.

T1 sequence (P31645 whole entry, species assumed): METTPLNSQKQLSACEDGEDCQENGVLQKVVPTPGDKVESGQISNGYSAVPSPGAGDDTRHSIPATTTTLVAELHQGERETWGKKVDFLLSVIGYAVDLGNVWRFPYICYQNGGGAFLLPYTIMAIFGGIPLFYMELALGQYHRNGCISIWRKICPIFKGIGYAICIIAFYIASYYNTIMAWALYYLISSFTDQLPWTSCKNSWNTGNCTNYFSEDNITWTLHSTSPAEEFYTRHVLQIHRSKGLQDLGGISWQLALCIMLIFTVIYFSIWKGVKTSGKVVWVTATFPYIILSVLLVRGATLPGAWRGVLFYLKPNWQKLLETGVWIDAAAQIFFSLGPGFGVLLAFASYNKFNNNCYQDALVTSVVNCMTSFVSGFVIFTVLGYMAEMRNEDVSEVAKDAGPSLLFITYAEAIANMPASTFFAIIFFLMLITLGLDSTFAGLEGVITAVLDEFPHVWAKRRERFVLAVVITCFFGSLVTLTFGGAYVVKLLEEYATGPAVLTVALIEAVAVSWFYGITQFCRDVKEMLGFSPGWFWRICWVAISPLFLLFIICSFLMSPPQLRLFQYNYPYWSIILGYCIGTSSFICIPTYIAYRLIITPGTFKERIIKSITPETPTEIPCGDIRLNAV
T2 sequence (Q07343 1-564 isoform Q07343-2): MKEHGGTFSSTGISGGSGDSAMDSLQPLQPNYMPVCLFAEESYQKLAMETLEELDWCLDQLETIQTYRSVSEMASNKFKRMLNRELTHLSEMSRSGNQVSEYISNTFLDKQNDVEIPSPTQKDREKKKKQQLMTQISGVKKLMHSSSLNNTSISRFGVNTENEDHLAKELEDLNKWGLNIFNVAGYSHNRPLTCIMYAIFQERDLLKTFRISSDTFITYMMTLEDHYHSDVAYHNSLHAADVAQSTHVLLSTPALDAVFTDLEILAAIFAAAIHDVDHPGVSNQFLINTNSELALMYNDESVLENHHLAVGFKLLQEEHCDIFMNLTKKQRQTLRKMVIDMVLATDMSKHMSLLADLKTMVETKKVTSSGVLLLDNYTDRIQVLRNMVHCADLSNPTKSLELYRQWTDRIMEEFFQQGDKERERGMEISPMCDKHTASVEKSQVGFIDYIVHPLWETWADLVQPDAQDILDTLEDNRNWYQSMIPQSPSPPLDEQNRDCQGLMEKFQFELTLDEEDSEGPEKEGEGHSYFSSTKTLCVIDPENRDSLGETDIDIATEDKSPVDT
T3 sequence (P27815 1-647 isoform P27815-4): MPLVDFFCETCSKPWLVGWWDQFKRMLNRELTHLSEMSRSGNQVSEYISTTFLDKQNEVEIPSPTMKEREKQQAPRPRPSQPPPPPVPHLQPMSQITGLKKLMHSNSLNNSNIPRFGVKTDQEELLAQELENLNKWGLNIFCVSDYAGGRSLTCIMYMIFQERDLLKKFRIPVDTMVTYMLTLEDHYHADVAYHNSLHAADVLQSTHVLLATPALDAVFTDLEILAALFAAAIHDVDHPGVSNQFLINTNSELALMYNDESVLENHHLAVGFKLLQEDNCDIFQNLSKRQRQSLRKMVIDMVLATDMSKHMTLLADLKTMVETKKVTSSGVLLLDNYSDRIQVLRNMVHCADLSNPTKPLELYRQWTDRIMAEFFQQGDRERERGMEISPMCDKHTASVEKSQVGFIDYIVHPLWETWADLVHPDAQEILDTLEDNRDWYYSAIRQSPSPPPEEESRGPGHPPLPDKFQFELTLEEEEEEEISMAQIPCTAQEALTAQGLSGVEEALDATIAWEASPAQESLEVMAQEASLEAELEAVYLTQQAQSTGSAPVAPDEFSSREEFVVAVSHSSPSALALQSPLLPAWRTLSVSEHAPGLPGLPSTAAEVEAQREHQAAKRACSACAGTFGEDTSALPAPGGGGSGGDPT
T5 sequence (Q08493 whole entry): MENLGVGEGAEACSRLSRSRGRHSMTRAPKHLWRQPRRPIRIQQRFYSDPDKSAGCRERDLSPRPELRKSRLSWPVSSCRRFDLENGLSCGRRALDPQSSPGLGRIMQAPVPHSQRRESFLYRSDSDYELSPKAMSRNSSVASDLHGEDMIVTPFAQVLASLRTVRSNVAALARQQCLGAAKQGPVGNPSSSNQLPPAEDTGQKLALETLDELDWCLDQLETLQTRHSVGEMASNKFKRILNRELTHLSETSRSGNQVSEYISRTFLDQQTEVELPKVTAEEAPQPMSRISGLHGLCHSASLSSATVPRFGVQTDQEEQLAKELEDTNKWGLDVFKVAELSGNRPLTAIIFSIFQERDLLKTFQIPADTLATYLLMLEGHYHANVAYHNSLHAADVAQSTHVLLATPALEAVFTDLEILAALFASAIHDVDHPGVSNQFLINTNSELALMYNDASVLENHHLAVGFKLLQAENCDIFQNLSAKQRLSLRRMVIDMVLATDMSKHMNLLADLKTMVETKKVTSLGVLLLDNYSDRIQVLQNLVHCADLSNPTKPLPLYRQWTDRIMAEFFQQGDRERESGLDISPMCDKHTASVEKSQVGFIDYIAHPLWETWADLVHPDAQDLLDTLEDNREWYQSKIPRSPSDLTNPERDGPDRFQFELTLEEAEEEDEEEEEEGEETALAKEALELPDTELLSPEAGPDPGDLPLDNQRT
T4 sequence (Q08499 303-809 limits assumed): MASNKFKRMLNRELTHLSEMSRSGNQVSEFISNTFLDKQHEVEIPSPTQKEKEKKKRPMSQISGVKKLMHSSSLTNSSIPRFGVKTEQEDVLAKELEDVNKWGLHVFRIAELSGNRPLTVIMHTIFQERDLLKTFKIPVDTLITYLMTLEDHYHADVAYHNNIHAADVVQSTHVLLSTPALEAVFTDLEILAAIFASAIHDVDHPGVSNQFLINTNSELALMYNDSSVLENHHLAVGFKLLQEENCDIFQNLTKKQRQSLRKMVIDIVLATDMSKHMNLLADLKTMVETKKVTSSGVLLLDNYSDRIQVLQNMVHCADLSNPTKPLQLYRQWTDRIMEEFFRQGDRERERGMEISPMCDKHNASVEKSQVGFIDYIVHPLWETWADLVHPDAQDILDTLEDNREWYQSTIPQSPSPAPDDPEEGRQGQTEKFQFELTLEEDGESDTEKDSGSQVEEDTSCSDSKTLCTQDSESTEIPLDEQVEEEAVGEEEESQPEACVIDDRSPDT

On to `COc1ccc([C@]23CCN(C)[C@H]2CC(=O)C[C@H]3C)cc1OC` (single isomer, unassigned) [Compound 102], for which the concentration for half-maximal inhibition (IC50) at SERT is below 250 nM. For the same compound, the inhibition at 10 µM on PDE4B2, on PDE4A1A, at PDE4D2 and on PDE4C1 was below 20% each time.
Regarding `COc1ccc([C@@]23CCN(C)[C@@H]2CC(=O)C[C@@H]3C)cc1OC` (single isomer, unassigned) [Compound 103], at SERT, the IC50 was below 250 nM. Also, the inhibition at 10 µM on PDE4B2, on PDE4A1A, on PDE4D2 and on PDE4C1 was below 20% each time.
Take `COc1ccc([C@@]23CCC(=O)C[C@@H]2N(C)CC3)cc1OC` [(−) mesembrine]: the half-life in plasma entry in series [1] is “less than 2 hours”.

By IC50 is commonly meant the concentration that inhibits the measured activity by half. Read a high IC50 as weaker potency. Broadly, the inhibition is the relative decrease from the control value, in per cent.
